Assay results taken from US11578056B2, “Solid forms comprising (S)-2-(2,6-dioxopiperidin-3-yl)-4-((2-fluoro-4-((3-morpholinoazetidin-1-yl)methyl)benzyl)amino)isoindoline-1,3-dione and salts thereof, and compositions comprising and methods of using the same” (Celgene Corporation, priority 2019, dated 2023).

Key:
Test in all cases: Hematological cell line viability/apoptosis flow cytometry assay
Format in all cases: cell-based
WILL-2 cell line = conditions: WILL-2 (DLBCL), 120 h
Procedure: (§1) Cell Proliferation and Viability Assay Using Hematological Cell Lines: The following exemplary anti-proliferative assay uses exemplary hematological cell lines in the following. The in vitro growth inhibitory activity of Compound 1 described herein was evaluated using a 384-well flow cytometry assay.
(§2) The cell lines were plated in 384-well flat bottom plates and assessed with increasing concentrations of compound ranging from 0.00015 to 10 μM or dimethyl sulfoxide (DMSO) control. The final concentration of DMSO was 0.1% (v/v). Following the addition of Compound 1 or DMSO and incubation for 120 hours, cell number and cell death were analyzed by flow cytometry (Attune®, Thermo Fisher) using Annexin V and the live-cell impermeant DNA dye, DRAQ7. Phosphatidylserine translocates from the inner layer to the outer layer of the cell membrane early in apoptosis and Annexin V binds to the exposed phosphatidylserine found on the surface of an apoptotic cell. The vital dye DRAQ7 is excluded by intact live cells and only stains cells that have died as a result of apoptosis or necrosis.
(§3) Flow cytometry data analysis was then performed using the Flow Jo_v10 software to determine the number of viable cells (Annexin V and DRAQ7 double negative staining cells) and percentage of apoptotic cells (Annexin V positive cells) for each condition. The live cell count for every concentration was normalized to the DMSO control (considered as 100%) to calculate the percentage of viable cells remaining after treatment and graphed using GraphPad Prism 7.03. The IC50 (50% inhibitory concentration) and Emax (maximum efficacy achieved) values were then calculated by performing nonlinear regression curve fitting using log(inhibitor) vs. normalized response—variable slope analysis on GraphPad Prism 7.03. Area under the curve (AUC) was calculated by performing area under curve analysis on GraphPad Prism 7.03. Similarly, for apoptosis analysis, the percentage of apoptosis combining both “early” (Annexin V positive and DRAQ7 negative) and “late” apoptosis (Annexin V and DRAQ7 positive) cell gates relative to DMSO was graphed using GraphPad Prism 7.03. The AUC, EC50 (concentration of compound that produces half-maximal apoptosis response) and Ymax (maximal percentage of apoptosis achieved) values from apoptosis curves were calculated by performing area under curve analysis and nonlinear regression curve fitting using log(agonist) vs. normalized response—Variable slope analysis on GraphPad Prism 7.03.
(§4) Dose-response proliferation curves for the panel of hematological cell lines and non-linear curve-fit regression were used to determine IC50, AUC, and Emax for % viable cells (Emax for viability varies between 100 at low doses and 0 at high doses, which corresponds to inhibition of all viable cells), and dose-response apoptosis curves were used to determine the EC50, AUC, and Ymax for % apoptosis (Ymax for apoptosis varies from 0 at low doses and 100 at higher doses which corresponds to death of all cells). Tumor cells were exposed to serial dilutions (0.00015 to 10 μM) of Compound 1 or dimethyl sulfoxide (DMSO) control for 5 days. Viability and apoptosis for all cell lines was determined by Annexin V/7-aminoactinomycin D (7-AAD) flow cytometry.

U-2973 cell line = conditions: 120 h
Procedure: as §1, §2, §3, §4

EHEB cell line = conditions: EHEB (CLL), 120 h
Procedure: as §1, §2, §3, §4

HT cell line = conditions: HT (DLBCL GCB); 120 h
Procedure: as §1, §2, §3, §4

U-2940 cell line = conditions: U-2940 (DLBCL PMBL); 120 h
Procedure: as §1, §2, §3, §4

Daudi cell line = conditions: Daudi (BL), 120 h
Procedure: as §1, §2, §3, §4

RIVA cell line = conditions: RIVA (DLBCL ABC), 120 h
Procedure: as §1, §2, §3, §4

OCI-LY19 cell line = conditions: OCI-LY19 (DLBCL GCB); 120 h
Procedure: as §1, §2, §3, §4

OCI-LY18 cell line = conditions: OCI-LY18 (DLBCL); 120 h
Procedure: as §1, §2, §3, §4

SU-DHL-4 cell line = conditions: SU-DHL-4 (DLBCL GCB); 120 h
Procedure: as §1, §2, §3, §4

U-2932 cell line = conditions: U-2932 (DLBCL ABC); 120 h
Procedure: as §1, §2, §3, §4

U-2946 cell line = conditions: U-2946 (DLBCL), 120 h
Procedure: as §1, §2, §3, §4

ULA cell line = conditions: ULA (DLBCL), 120 h
Procedure: as §1, §2, §3, §4

Karpas-299 cell line = conditions: Karpas-299 (TCL), 120 h
Procedure: as §1, §2, §3, §4

[1] = Homo sapiens, read-out: % Viable Cells IC50

`O=C1CC[C@H](N2C(=O)c3cccc(NCc4ccc(CN5CC(N6CCOCC6)C5)cc4F)c3C2=O)C(=O)N1` [Compound 1, (S)-2-(2,6-dioxopiperidin-3-yl)-4-((2-fluoro-4-((3-morpholinoazetidin-1-yl)methyl)benzyl)amino)isoindoline-1,3-dione] was tested, and the “% Viable Cells AUC” value (WILL-2 cell line) was 17.1, the “% Viable Cells Emax” value (WILL-2 cell line) was 0.03115% and the “Apoptosis AUC” value (WILL-2 cell line) was 916.9. The “Apoptosis Ymax” value (WILL-2 cell line) was 99.43%, the EC50 (WILL-2 cell line) was 0.0897 µM and the IC50 (WILL-2 cell line; read-out: % Viable Cells IC50) was 0.00236 µM. The “% Viable Cells AUC” value (U-2973 cell line) was 853.4, the “% Viable Cells Emax” value (U-2973 cell line) was 19.45% and the “Apoptosis AUC” value (U-2973 cell line) was 391.9. For the same molecule, the “Apoptosis Ymax” value (U-2973 cell line) was 60.8%, the “% Viable Cells AUC” value (EHEB cell line) was 319.3 and the “% Viable Cells Emax” value (EHEB cell line) was 28.68%. The “Apoptosis AUC” value (EHEB cell line) was 65.03, the “Apoptosis Ymax” value (EHEB cell line) was 8.42% and the EC50 (EHEB cell line) was 0.506 µM. The IC50 (EHEB cell line; read-out: % Viable Cells IC50) was 0.0303 µM, the “% Viable Cells AUC” value (HT cell line) was 396.7 and the “% Viable Cells Emax” value (HT cell line) was 30.39%. The “Apoptosis AUC” value (HT cell line) was 225.3, the “Apoptosis Ymax” value (HT cell line) was 25.16% and the “% Viable Cells AUC” value (U-2940 cell line) was 70.43. The “% Viable Cells Emax” value (U-2940 cell line) was 5.192%, the “Apoptosis AUC” value (U-2940 cell line) was 792.5 and the “Apoptosis Ymax” value (U-2940 cell line) was 82.19%. For the same molecule, the “% Viable Cells AUC” value (Daudi cell line) was 196.4, the “% Viable Cells Emax” value (Daudi cell line) was 0% and the “Apoptosis AUC” value (Daudi cell line) was 274. For the same molecule, the “Apoptosis Ymax” value (Daudi cell line) was 84.0%, the EC50 (Daudi cell line; Homo sapiens) was 2.32 µM and the IC50 (Daudi cell line; [1]) was 0.0006 µM. The “% Viable Cells AUC” value (RIVA cell line) was 452.6, the “% Viable Cells Emax” value (RIVA cell line) was 36.65% and the “Apoptosis AUC” value (RIVA cell line) was 242.8. For the same molecule, the “Apoptosis Ymax” value (RIVA cell line) was 27.92%, the EC50 (RIVA cell line) was 0.0177 µM and the IC50 (RIVA cell line; read-out: % Viable Cells IC50) was 0.114 µM. For the same molecule, the “% Viable Cells AUC” value (OCI-LY19 cell line) was 72.49, the “% Viable Cells Emax” value (OCI-LY19 cell line) was 3.228% and the “Apoptosis AUC” value (OCI-LY19 cell line) was 706.2. The “Apoptosis Ymax” value (OCI-LY19 cell line) was 80.91%, the “% Viable Cells AUC” value (OCI-LY18 cell line) was 1.965 and the “% Viable Cells Emax” value (OCI-LY18 cell line) was 0.05973%. For the same molecule, the “Apoptosis AUC” value (OCI-LY18 cell line) was 965.2, the “Apoptosis Ymax” value (OCI-LY18 cell line) was 97.44% and the “% Viable Cells AUC” value (SU-DHL-4 cell line) was 296.2. The “% Viable Cells Emax” value (SU-DHL-4 cell line) was 23.44%, the “Apoptosis AUC” value (SU-DHL-4 cell line) was 209 and the “Apoptosis Ymax” value (SU-DHL-4 cell line) was 25.33%. For the same molecule, the “% Viable Cells AUC” value (U-2932 cell line) was 163.7, the “% Viable Cells Emax” value (U-2932 cell line) was 12.8% and the “Apoptosis AUC” value (U-2932 cell line) was 212.8. For the same molecule, the “Apoptosis Ymax” value (U-2932 cell line) was 25.81%, the “% Viable Cells AUC” value (U-2946 cell line) was 45.47 and the “% Viable Cells Emax” value (U-2946 cell line) was 0.4821%. For the same molecule, the “Apoptosis AUC” value (U-2946 cell line) was 762.6, the “Apoptosis Ymax” value (U-2946 cell line) was 93.34% and the EC50 (U-2946 cell line) was 0.192 µM. For the same molecule, the IC50 (U-2946 cell line; read-out: % Viable Cells IC50) was 0.0046 µM, the “% Viable Cells AUC” value (ULA cell line) was 0.5518 and the “% Viable Cells Emax” value (ULA cell line) was 0.02523%. For the same molecule, the “Apoptosis AUC” value (ULA cell line) was 995.3, the “Apoptosis Ymax” value (ULA cell line) was 99.76% and the EC50 (ULA cell line) was 0.00179 µM. For the same molecule, the IC50 (ULA cell line; read-out: % Viable Cells IC50) was 0.00099 µM, the EC50 (Karpas-299 cell line; Homo sapiens) was 168 µM and the IC50 (Karpas-299 cell line; [1]) was 0.012 µM. For the same molecule, the “% Viable Cells AUC” value (Karpas-299 cell line) was 283.7, the “% Viable Cells Emax” value (Karpas-299 cell line) was 8.43% and the “Apoptosis AUC” value (Karpas-299 cell line) was 14.51. For the same molecule, the “Apoptosis Ymax” value (Karpas-299 cell line) was 8.0%.
